In patent publication US20180071261A1, “CYCLOCREATINE MICROSUSPENSION” (Lumos Pharma, Inc., priority 2015, published 2018):
≈ marks a conversion by molar mass, not a printed value.

Assays:
Assay type in all cases: physicochemical
[1] = Particle size analysis before and after milling; conditions: for Particle size: 200 mg/mL, 1.0 mm zirconia beads, 3344 rpm
From the text: To a milling vessel size of 0.6 liter of a Glen Dyno Mill about 70% volume of zirconia grinding media was charged. An agitator shaft activated the media, creating shearing and impacting forces. The rotation of the agitator imparted energy to the surrounding media and fractures the cyclocreatine solids suspended in water, resulting in overall reduction in particle size.
Water was charged into a stainless steel vessel equipped with overhead agitator and blanketed with nitrogen followed by the addition of cyclocreatine. The mixture was pumped via a peristaltic pump into the grinding chamber. The milled sample exiting the chamber was collected in another stainless steel vessel (also equipped with an overhead agitator and blanked with nitrogen) until the first vessel was empty at which time a three way valve was switched as to continue pumping the mixture in one of the vessels into the grinding chamber. The drug concentration in the suspension ranged from 10-20% w/v. […] The rotation of the disk accelerated the milling media radially. The suspension mixture flowed axially through the milling chamber where the shear forces generated during impaction of the milling media with the solid particles provided the energy input to fracture the drug into nanometer-sized particles. Up to 40% nanoparticles were observed. In another embodiment, up to about 10% nanoparticles by volume were observed. The temperature inside the grinding chamber was controlled by circulating coolant through the outer jacket. The resultant microsuspension had good flow characteristics and appeared milky (FIG. 2).
For example a 200 mg/mL solid concentration of formulation processed in a 0.6 liter sized grinding chamber filled with 1.0 mm diameter zirconia beads and a 3344 rpm agitator speed for a total of two hours produced samples with similar final particle size in three repeated experiments. In all instances, the particle size decreased markedly within 30 min processing time from the initial 400 μm to about 80 μm, but with little change observed between 30 and 120 min. Further prolonging in the milling times was not beneficial, because decreased particle sizes were not achieved. In addition to particle size analysis (FIG. 3), the SEM micrographs (FIG. 4) further confirmed that the milling process as effective in converting the original cyclocreatine particles into the low micron range.
(§1) The cyclocreatine samples were analyzed before and after milling (Example 1) to assess the effect of milling on the drug stability.

[2] = Drug stability: cyclocreatine degradation after milling
Method: as §1
After milling for about 45 min, the particle size of the micronized API appeared to have been reduced uniformly for the entire batch of sample.

[3] = Stability test: cyclocreatine concentration in suspension formulation over 40 days; conditions: suspension in water (~200 mg/mL)
[4] = Solubility of cyclocreatine in water
Method: The collected micronized API was then formulated with water to form an aqueous microsuspension. 20.0 grams of cyclocreatine was weighed into a graduated vessel. Approximately 80 mL of water was added and the solution mixed to allow partial dissolution. After mixing for 5 minutes, water was added to dilute to a final volume of 100 mL.

[5] = by process condition (un-milled vs wet bead mill)

## NC1=NCCN1CC(=O)O [Cyclocreatine, cyclocreatine]
[1]; after wet bead milling
  Nanoparticles observed: Up to 40%
[1]; after wet bead milling, another embodiment, by volume
  Nanoparticles by volume observed: up to 10%
[1]; [5]
  Particle Size (μm, Volume weighted average): 400 μm
[1]; initial, before wet milling
  Particle size: 400 μm
[1]; within 30 min processing time
  Particle size: about 80 μm
[2]; [5]
  Cyclocreatine degradation after milling process (%): 0%
[2]; dry milling (pin mill), about 45 min
  Stability during the milling process: stable
[3]; day 0
  Cyclocreatine concentration in the suspension sample: 177.1 ± 0.5 mg/g
[3]; day 7
  Cyclocreatine concentration in the suspension sample: 174.6 ± 1.0 mg/g
[3]; day 11
  Cyclocreatine concentration in the suspension sample: 175.7 ± 1.0 mg/g
[3]; day 26
  Cyclocreatine concentration in the suspension sample: 176.9 ± 0.5 mg/g
[3]; day 40
  Cyclocreatine concentration in the suspension sample: 180.1 ± 1.5 mg/g
[4]
  solubility: 17 mg/mL (≈ 119 mM)
